The subject of one assay is S. aureus - MRSA USA300. Briefly: microbe, parasite or virus in culture. Type of assay: cell-based.
The subject of the next assay is S. aureus RN4220 (MSSA). Briefly: microbe, parasite or virus in culture. Type of assay: cell-based.
Assay [1] concerns LTA production in S. aureus. Nature of the assay: Inhibition of LTA synthesis in S. aureus (immunoblot). As to conditions: sub-lethal concentrations of compound. A general note: In western blotting, separated proteins are transferred to a membrane and probed.
Assay [2] has as its system S. aureus RN4220. Nature of the assay: Growth of S. aureus culture with sub-lethal compound (OD600). As to conditions: 1 μM compound, until control culture OD600 1.0.
The subject of another assay is B. anthracis Sterne. Briefly: microbe, parasite or virus in culture. The format is cell-based.
Assay [3] has as its target Recombinant S. aureus LtaSSA expressed in E. coli (Staphylococcus aureus, UniProt Q2G093). Type of assay: cell-based.
A further assay relates to E. faecalis - VRE V583. Briefly: microbe, parasite or virus in culture. The format is cell-based.
Another assay relates to E. faecium - VRE TX0016. Nature of the assay: microbe, parasite or virus in culture. Type of assay: cell-based.
Assay [4] concerns S. aureus RN4220. Nature of the assay: High throughput screen for growth inhibitors, 384-well. The format is cell-based. As to conditions: Staphylococcus aureus, positive control, vs medium alone. The procedure: The antibiotic sensitive strain S. aureus RN4220 was used to screen for small molecule growth inhibitors in a high throughput-screening assay using 384-well microplates. Cation-adjusted Hinton Mueller II broth supplemented with 0.005% Tween-80 was inoculated with a single colony of S. aureus RN4220. Following overnight incubation, the culture was diluted 1:100 in fresh medium and incubation was continued until the bacterial suspension reached an optical density at 600 nm (OD600) of 0.6 corresponding to a bacterial titer of 5×10^8 colony forming units (CFU) per ml. An aliquot of this culture was diluted 1:400 with fresh medium and stored on ice until it could be dispensed in 384-well plates. Small-scale experiments were conducted to determine the Z′-factor (1-[(3SD^−)+(3SD^+)/(Ave^−)−(Ave^+)]) used commonly for quality assessment of raw data sets generated in high-throughput screening. In this formula, (SD^+/−) and (Ave^+/−) represent standard deviation and average of positive and negative controls. […] The OD600 in each well was recorded after 20 hours incubation. […] After 20 hours, the OD600 was measured using a plate reader in absorbance mode. […]
S. aureus lacking the ltaS gene is unable to grow at temperatures […]. […] The quality of the screen was assessed for every assay plate with the Z′-factor, a measure for data variability within the dynamic range of the assay (Zhang et al. 1999). […]

Where [5] appears, read: 37° C., 18-22 hours, OD600, sigmoidal fit, read-out: IC50.

Values after ≈ are worked out from the molar mass of the structure shown. “Also recorded” adds a separate entry of the source. Like-named read-outs stand apart in the source and are kept apart here.

Chain of Recombinant S. aureus LtaSSA expressed in E. coli (Q2G093 whole entry): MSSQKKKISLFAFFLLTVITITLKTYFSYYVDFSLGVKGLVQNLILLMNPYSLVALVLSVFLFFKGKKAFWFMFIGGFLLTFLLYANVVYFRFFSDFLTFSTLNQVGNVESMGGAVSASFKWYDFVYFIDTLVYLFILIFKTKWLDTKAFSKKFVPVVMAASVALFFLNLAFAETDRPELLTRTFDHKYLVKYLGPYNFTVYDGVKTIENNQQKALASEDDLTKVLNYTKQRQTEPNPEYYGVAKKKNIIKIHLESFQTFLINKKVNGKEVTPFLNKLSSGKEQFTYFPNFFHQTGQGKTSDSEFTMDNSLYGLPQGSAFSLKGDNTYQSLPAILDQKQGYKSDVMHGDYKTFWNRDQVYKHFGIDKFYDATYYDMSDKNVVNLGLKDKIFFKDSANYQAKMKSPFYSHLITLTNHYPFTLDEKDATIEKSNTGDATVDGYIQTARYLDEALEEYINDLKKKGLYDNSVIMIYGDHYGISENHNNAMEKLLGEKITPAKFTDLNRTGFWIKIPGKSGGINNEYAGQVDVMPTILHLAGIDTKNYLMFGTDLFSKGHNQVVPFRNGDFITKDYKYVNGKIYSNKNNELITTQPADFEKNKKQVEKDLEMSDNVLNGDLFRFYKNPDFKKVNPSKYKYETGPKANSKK

One may read the IC50 as the midpoint of a concentration-inhibition curve. For `COc1cccc(-c2nnc(NC(=O)c3ccc(S(=O)(=O)N(Cc4ccccc4)C(C)C)cc3)o2)c1` [4-(N-benzyl-N-isopropylsulfamoyl)-N-(5-(3-methoxyphenyl)-1,3,4-oxadiazol-2-yl)benzamide], the IC50 in the assay with S. aureus - MRSA USA300 (Staphylococcus aureus) was determined as 1.3 µM; in the assay on S. aureus RN4220 (MSSA) (Staphylococcus aureus, MSSA), 1.2 µM; in the assay on B. anthracis Sterne (Bacillus anthracis), 1 µM; in the assay on E. faecalis - VRE V583 (Enterococcus faecalis, VRE), 18.5 µM; in the assay on E. faecium - VRE TX0016 (Enterococcus faecium, VRE), 7.3 µM. Further, the MIC in the assay with S. aureus - MRSA USA300 (Staphylococcus aureus) stood at 3.1 µM (≈ 1.57 µg/mL); with S. aureus RN4220 (MSSA) (Staphylococcus aureus, MSSA), 3.1 µM (≈ 1.57 µg/mL); against B. anthracis Sterne (Bacillus anthracis), 1.6 µM (≈ 0.811 µg/mL); in the assay on E. faecalis - VRE V583 (Enterococcus faecalis, VRE), 50 µM (≈ 25.3 µg/mL); in the assay on E. faecium - VRE TX0016 (Enterococcus faecium, VRE) it was 50 µM (≈ 25.3 µg/mL). Further, the “LTA production (immunoblot α-LTA)” value in assay [1] was “affect the production of LTA; also recorded: reduced”. In addition, the “reduced growth of staphylococci” value with S. aureus RN4220 [2] is listed as 75%. Besides, the “production of LTA promoted by plasmid encoded LtaSSA” value (“production of LTA promoted” below) in [3] is recorded as “abrogated”.

As for `CC(=O)COC(=O)Cc1coc2ccc3ccccc3c12` [Compound 1771-1, 2-oxopropyl 2-(naphtho[2,1-b]furan-1-yl)acetate], in the assay on S. aureus RN4220 (MSSA) (Staphylococcus aureus, MSSA), the 50% inhibitory concentration (IC50) is more than 400 µM and the MIC was more than 400 µM. Besides, in the assay on B. anthracis Sterne (Bacillus anthracis), the half-maximal inhibitory concentration (IC50) was found to be 169 µM and the MIC was more than 400 µM.

In the case of `CC1CCCCN1S(=O)(=O)c1ccc(C(=O)Nc2nnc(-c3cccs3)o2)cc1` (stereo not shown) [Compound 1650-M01, 4-(2-methylpiperidin-1-ylsulfonyl)-N-(5-(thiophen-2-yl)-1,3,4-oxadiazol-2-yl)benzamide], the MIC in the assay on S. aureus - MRSA USA300 (37° C., 18-22 hours, OD600) is 25.0 µM (≈ 10.8 µg/mL); in the assay on S. aureus - MRSA USA300 (Staphylococcus aureus), 25 µM (≈ 10.8 µg/mL); with S. aureus RN4220 (MSSA) (Staphylococcus aureus, MSSA), 25 µM (≈ 10.8 µg/mL); in the assay with B. anthracis Sterne (Bacillus anthracis), 25 µM (≈ 10.8 µg/mL); in the assay with E. faecalis - VRE V583 (Enterococcus faecalis, VRE) it was 100 µM (≈ 43.3 µg/mL); in the assay on E. faecium - VRE TX0016 (Enterococcus faecium, VRE), 100 µM (≈ 43.3 µg/mL). The half-maximal inhibitory concentration (IC50) in the assay on S. aureus - MRSA USA300 (Staphylococcus aureus) was 8.4 µM; in the assay on S. aureus RN4220 (MSSA) (Staphylococcus aureus, MSSA), 7.1 µM; with B. anthracis Sterne (Bacillus anthracis) it was 11.1 µM; with E. faecalis - VRE V583 (Enterococcus faecalis, VRE) it was 36.7 µM; in the assay on E. faecium - VRE TX0016 (Enterococcus faecium, VRE), 19.4 µM. Also, in [3], the “production of LTA promoted” value is listed as “abrogated”.

In the assay on S. aureus RN4220 (MSSA) (Staphylococcus aureus, MSSA), `O=C(COC(=O)Cc1coc2cc3c(cc12)CCC3)Nc1nnc(-c2ccccc2)o1` [Compound 1771-7, 2-oxo-2-(5-phenyl-1,3,4-oxadiazol-2-ylamino)ethyl 2-(6,7-dihydro-5H-indeno[5,6-b]furan-3-yl)acetate] yielded an IC50 of 27.7 µM and an MIC of 50 µM (≈ 20.9 µg/mL). In addition, in the assay with B. anthracis Sterne (Bacillus anthracis), the concentration for half-maximal inhibition (IC50) is 24.1 µM and the MIC is 50 µM (≈ 20.9 µg/mL).

Regarding `COc1cc(OC)cc(-c2nnc(NC(=O)c3ccc(S(=O)(=O)N(C)c4ccccc4)cc3)o2)c1` [Compound 1650-I01, N-(5-(3,5-dimethoxyphenyl)-1,3,4-oxadiazol-2-yl)-4-(N-methyl-N-henylsulfamoyl)benzamide], the MIC was found to be 6.2 µM (≈ 3.07 µg/mL) with S. aureus - MRSA USA300 (37° C., 18-22 hours, OD600); 3.1 µM (≈ 1.53 µg/mL) in the assay with S. aureus RN4220 (MSSA) (37° C., 18-22 hours, OD600); 3.1 µM (≈ 1.53 µg/mL) in the assay with B. anthracis Sterne (37° C., 18-22 hours, OD600); 100.0 µM (≈ 49.5 µg/mL) in the assay with E. faecalis - VRE V583 (37° C., 18-22 hours, OD600); 100.0 µM (≈ 49.5 µg/mL) against E. faecium - VRE TX0016 (37° C., 18-22 hours, OD600). For the same compound, the IC50 in the assay on S. aureus - MRSA USA300 (setting [5]) came out at 1.7 µM; in the assay on S. aureus RN4220 (MSSA) (setting [5]), 1.3 µM; in the assay with B. anthracis Sterne (setting [5]), 1.5 µM; in the assay with E. faecalis - VRE V583 (setting [5]), 55.6 µM; with E. faecium - VRE TX0016 (setting [5]), 14.6 µM. For the same compound, the “LTA production (immunoblot α-LTA)” value in assay [1] was “affect the production of LTA; also recorded: reduced”. The “reduced growth of staphylococci” value in the assay with S. aureus RN4220 [2] is listed as 50%. For the same compound, the “production of LTA promoted” value in [3] is listed as “abrogated”.

Broadly, the inhibition is the drop in the measured response relative to a control, in per cent. Low values mean a response near the control, high ones a response far below the control. Consider `O=C(N[C@H](CO)[C@H](O)c1ccc([N+](=O)[O-])cc1)C(Cl)Cl` [chloramphenicol], for which, in the assay on S. aureus RN4220 [4], the inhibition at 80 µM worked out at 100%.

Consider `CNC(=O)COC(=O)Cc1coc2ccc3ccccc3c12` [Compound 1771-2, 2-(methylamino)-2-oxoethyl 2-(naphtho[2,1-b]furan-1-yl)acetate], for which the IC50 in the assay on S. aureus RN4220 (MSSA) (Staphylococcus aureus, MSSA) is more than 400 µM; in the assay with B. anthracis Sterne (Bacillus anthracis), more than 400 µM. Further, the MIC against S. aureus RN4220 (MSSA) (Staphylococcus aureus, MSSA) is more than 400 µM; against B. anthracis Sterne (Bacillus anthracis) it was more than 400 µM.

Turning to `O=C(COC(=O)Cc1ccccc1)Nc1nnc(-c2ccccc2)o1` [Compound 1771-4, 2-oxo-2-(5-phenyl-1,3,4-oxadiazol-2-ylamino)ethyl 2-phenylacetate], in the assay on S. aureus RN4220 (MSSA) (Staphylococcus aureus, MSSA), the IC50 was 242 µM and the MIC was more than 400 µM. For the same compound, in the assay on B. anthracis Sterne (Bacillus anthracis), the IC50 stood at 224 µM and the MIC was more than 400 µM.

In the assay on S. aureus RN4220 (MSSA) (Staphylococcus aureus, MSSA), `CC(NC(=O)COC(=O)Cc1coc2ccc3ccccc3c12)c1ccccc1` (stereo not shown) [Compound 1771-3, 2-oxo-2-(1-phenylethylamino)ethyl 2-(naphtho[2,1-b]furan-1-yl)acetate] displayed a 50% inhibitory concentration (IC50) of more than 400 µM and an MIC of more than 400 µM. In the assay with B. anthracis Sterne (Bacillus anthracis), the concentration for half-maximal inhibition (IC50) was more than 400 µM and the MIC was more than 400 µM.

On to `Cc1cc2occ(CC(=O)OCC(=O)Nc3nnc(-c4ccccc4)o3)c2cc1C` [Compound 1771-6, 2-oxo-2-(5-phenyl-1,3,4-oxadiazol-2-ylamino)ethyl 2-(5,6-dimethylbenzofuran-3-yl)acetate], for which, in the assay on S. aureus RN4220 (MSSA) (Staphylococcus aureus, MSSA), the IC50 stood at 15.2 µM and the MIC amounted to 50 µM (≈ 20.3 µg/mL). For the same compound, in the assay on B. anthracis Sterne (Bacillus anthracis), the IC50 came out at 14.8 µM and the MIC is 25 µM (≈ 10.1 µg/mL).

Regarding `O=C(COC(=O)Cc1c[nH]c2ccccc12)Nc1nnc(-c2ccccc2)o1` [Compound 1771-5, 2-oxo-2-(5-phenyl-1,3,4-oxadiazol-2-ylamino)ethyl 2-(1H-indol-3-yl)acetate], in the assay with S. aureus RN4220 (MSSA) (Staphylococcus aureus, MSSA), 85.6 µM corresponded to half-maximal inhibition (IC50) and the MIC was more than 400 µM. In the assay on B. anthracis Sterne (Bacillus anthracis), the half-inhibitory concentration (IC50) was 88.1 µM and the MIC is 200 µM (≈ 75.3 µg/mL).

These data come from patent publication US20150246024A1 (priority 2012, published 2015).
